In PMC6270290, “Synthesis of Bistetrahydroquinolines as Potential Anticholinesterasic Agents by Double Diels-Alder Reactions” (Molecules, 2013):

Molecular target: acetylcholinesterase (AChE) (Electrophorus electricus, UniProt O42275)
Test: Ellman colorimetric assay, acetylthiocholine hydrolysis
Type: biochemical

Chain of acetylcholinesterase (AChE) (O42275 24-633): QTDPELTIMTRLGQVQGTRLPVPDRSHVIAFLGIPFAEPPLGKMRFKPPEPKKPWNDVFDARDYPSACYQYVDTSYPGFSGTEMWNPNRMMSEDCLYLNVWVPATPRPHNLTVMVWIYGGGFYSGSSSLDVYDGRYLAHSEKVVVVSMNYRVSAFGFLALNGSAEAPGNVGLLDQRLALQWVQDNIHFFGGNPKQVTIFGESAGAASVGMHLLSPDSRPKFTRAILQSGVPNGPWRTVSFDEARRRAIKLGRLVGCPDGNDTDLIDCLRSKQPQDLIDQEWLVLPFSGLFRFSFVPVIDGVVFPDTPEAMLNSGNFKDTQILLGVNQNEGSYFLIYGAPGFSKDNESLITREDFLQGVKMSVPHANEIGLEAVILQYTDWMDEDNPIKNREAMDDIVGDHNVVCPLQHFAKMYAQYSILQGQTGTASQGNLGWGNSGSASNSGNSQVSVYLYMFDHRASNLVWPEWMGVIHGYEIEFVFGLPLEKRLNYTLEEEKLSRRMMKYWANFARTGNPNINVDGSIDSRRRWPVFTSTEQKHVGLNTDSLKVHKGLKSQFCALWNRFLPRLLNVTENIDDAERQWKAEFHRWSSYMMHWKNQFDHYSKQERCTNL

With `COc1ccc2c(c1)C(N1CCCC1=O)CC(c1cccc(C3CC(N4CCCC4=O)c4cc(OC)ccc4N3)c1)N2` (stereo not shown) [5c, 1,3-bis(6'-Methoxy-4'-(2-oxopyrrolidinyl-1)-1',2',3',4'-tetrahydroquinolin-2-yl)benzene] the IC50 was 122 µM.
